This passage reports IC50 results from patent US7238701B2, “Substituted tetrahydrobenzothienopyrimidinamine compounds useful for treating hyper-proliferative disorders” (Bayer Pharmaceuticals Corporation, priority 2003, dated 2007).

Assay [1] has as its system A431cells (human epidermoid carcinoma). Kind of assay: In vitro tumor cell proliferation assay (Cell Titer-Glo luminescent cell viability), A431 cells. It is filed as cell-based. Particulars: A-431, 72 h, 72 hours drug exposure, 10% Fetal Bovine Serum, ATP luminescence readout, read-out: IC50 (50% inhibition of cell proliferation). In outline: (§1)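 ATP luminescence (CellTiter-Glo) measured proliferation after 72 h compound exposure at 37 °C, giving IC50 values. Serial dilutions spanning 64 pM–100 μM in 0.1% DMSO were applied one day after plating 2.5×10^3 cells/well in RPMI plus 10% fetal bovine serum.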
A general note: In ATP-based viability assays light output follows the ATP content of the culture.

Assay [2] deals with BT474 (human breast carcinoma). Kind of assay: In vitro tumor cell proliferation assay (Cell Titer-Glo luminescent cell viability), BT474 cells. It is filed as cell-based. The conditions noted are these: BT-474, 72 hours drug exposure, 10% Fetal Bovine Serum, ATP luminescence readout, read-out: IC50 (50% inhibition of cell proliferation). An outline of the steps: as §1

The structures appear in SMILES notation. Bounds are passed on as bounds.

For `Fc1cccc(COc2ccc(Nc3ncnc4sc5c(c34)CCC(CCN3CCCC3)C5)cc2Cl)c1` (centres unmarked) [Example 161, N-{3-chloro-4-[(3-fluorobenzyl)oxy]phenyl}-7-(2-pyrrolidin-1-ylethyl)-5,6,7,8-tetrahydro[1]benzothieno[2,3-d]pyrimidin-4-amine], the IC50 in assay [1] and in assay [2] was < 5 µM in each case.

Turning to `CN(C)CCNCCC1CCc2c(sc3ncnc(Nc4ccc(OCc5cccc(F)c5)c(Cl)c4)c23)C1` (centres unmarked) [Example 162, N′-{2-[4-({3-chloro-4-[(3-fluorobenzyl)oxy]phenyl}amino)-5,6,7,8-tetrahydro[1]benzothieno[2,3-d]pyrimidin-7-yl]ethyl}-N,N-dimethylethane-1,2-diamine], the IC50 in assay [1] and in assay [2] was < 5 µM in each case.

For the compound `OCCNCCC1CCc2c(sc3ncnc(Nc4ccc(OCc5cccc(F)c5)c(Cl)c4)c23)C1` (centres unmarked) [Example 163, 2-({2-[4-({3-chloro-4-[(3-fluorobenzyl)oxy]phenyl}amino)-5,6,7,8-tetrahydro[1]benzothieno[2,3-d]pyrimidin-7-yl]ethyl}amino)ethanol], the IC50 in assay [1] and in assay [2] was < 5 µM in each case.

In the case of `CN(C)CCC1CCc2c(sc3ncnc(Nc4ccc(OCc5cccc(F)c5)c(Cl)c4)c23)C1` (centres unmarked) [Example 164, N-{3-chloro-4-[(3-fluorobenzyl)oxy]phenyl}-7-[2-(dimethylamino)ethyl]-5,6,7,8-tetrahydro[1]benzothieno[2,3-d]pyrimidin-4-amine], the IC50 in assay [1] and in assay [2] was < 5 µM in each case.

With `OCCN(CCO)CCC1CCc2c(sc3ncnc(Nc4ccc(OCc5cccc(F)c5)c(Cl)c4)c23)C1` (centres unmarked) [Example 165, 2,2′-({2-[4-({3-chloro-4-[(3-fluorobenzyl)oxy]phenyl}amino)-5,6,7,8-tetrahydro[1]benzothieno[2,3-d]pyrimidin-7-yl]ethyl}imino)diethanol], the IC50 in assay [1] and in assay [2] was < 5 µM in each case.

For `Fc1cccc(COc2ccc(Nc3ncnc4sc5c(c34)CCC(CCNCCN3CCOCC3)C5)cc2Cl)c1` (centres unmarked) [Example 166, N-{3-chloro-4-[(3-fluorobenzyl)oxy]phenyl}-7-{2-[(2-morpholin-4-ylethyl)amino]ethyl}-5,6,7,8-tetrahydro[1]benzothieno[2,3-d]pyrimidin-4-amine], the figures for the IC50 in assay [1] and in assay [2] were < 50 µM and < 5 µM, respectively.

For the compound `Fc1cccc(COc2ccc(Nc3ncnc4sc5c(c34)CCC(CCN3CCCCC3)C5)cc2Cl)c1` (centres unmarked) [Example 167, N-{3-chloro-4-[(3-fluorobenzyl)oxy]phenyl}-7-(2-piperidin-1-ylethyl)-5,6,7,8-tetrahydro[1]benzothieno[2,3-d]pyrimidin-4-amine], the IC50 in assay [1] and in assay [2] was < 5 µM in each case.

As to `COCCN1CCN(CCC2CCc3c(sc4ncnc(Nc5ccc(OCc6cccc(F)c6)c(Cl)c5)c34)C2)CC1` (centres unmarked) [Example 168, N-{3-chloro-4-[(3-fluorobenzyl)oxy]phenyl}-7-{2-[4-(2-methoxyethyl)piperazin-1-yl]ethyl}-5,6,7,8-tetrahydro[1]benzothieno[2,3-d]pyrimidin-4-amine], the IC50 in assay [1] and in assay [2] was < 5 µM each time.

Turning to `CNCCC1CCc2c(sc3ncnc(Nc4ccc(OCc5cccc(F)c5)c(Cl)c4)c23)C1` (centres unmarked) [Example 169, N-{3-chloro-4-[(3-fluorobenzyl)oxy]phenyl}-7-[2-(methylamino)ethyl]-5,6,7,8-tetrahydro[1]benzothieno[2,3-d]pyrimidin-4-amine], the IC50 in assay [1] and in assay [2] was < 5 µM throughout.

With `Fc1cccc(COc2ccc(Nc3ncnc4sc5c(c34)CCC(CCn3ccnc3)C5)cc2Cl)c1` (centres unmarked) [Example 170, N-{3-chloro-4-[(3-fluorobenzyl)oxy]phenyl}-7-[2-(1H-imidazol-1-yl)ethyl]-5,6,7,8-tetrahydro[1]benzothieno[2,3-d]pyrimidin-4-amine], the IC50 in assay [1] and in assay [2] was < 5 µM in each case.

As for `Fc1cccc(COc2ccc(Nc3ncnc4sc5c(c34)CCC(CCN3CCN(Cc4ccncc4)CC3)C5)cc2Cl)c1` (centres unmarked) [Example 171, N-{3-chloro-4-[(3-fluorobenzyl)oxy]phenyl}-7-{2-[4-(pyridin-4-ylmethyl)piperazin-1-yl]ethyl}-5,6,7,8-tetrahydro[1]benzothieno[2,3-d]pyrimidin-4-amine], the IC50 in assay [1] and in assay [2] was < 5 µM each time.

For the compound `N#Cc1ccc(N2CCN(CCC3CCc4c(sc5ncnc(Nc6ccc(OCc7cccc(F)c7)c(Cl)c6)c45)C3)CC2)cc1` (centres unmarked) [Example 172, 4-(4-{2-[4-({3-chloro-4-[(3-fluorobenzyl)oxy]phenyl}amino)-5,6,7,8-tetrahydro[1]benzothieno[2,3-d]pyrimidin-7-yl]ethyl}piperazin-1-yl)benzonitrile], the IC50 was < 50 µM in assay [1] and < 5 µM in assay [2].

As to `CCOC(=O)CC1CCc2c(sc3ncnc(Nc4ccc(OCc5ccccn5)c(Cl)c4)c23)C1` (centres unmarked) [Example 173, {4-[3-Chloro-4-(pyridin-2-ylmethoxy)-phenylamino]-5,6,7,8-tetrahydro-benzo[4,5]thieno[2,3-d]pyrimidin-7-yl}-acetic acid ethyl ester], the values for the IC50 in assay [1] and in assay [2] were < 50 µM and < 5 µM, respectively.

As to `OCCC1CCc2c(sc3ncnc(Nc4ccc(OCc5ccccn5)c(Cl)c4)c23)C1` (centres unmarked) [Example 174, 2-{4-[3-Chloro-4-(pyridin-2-ylmethoxy)-phenylamino]-5,6,7,8-tetrahydro-benzo[4,5]thieno[2,3-d]pyrimidin-7-yl}-ethanol], the IC50 in assay [1] was < 50 µM; in assay [2], < 5 µM.

Turning to `CS(=O)(=O)OCCC1CCc2c(sc3ncnc(Nc4ccc(OCc5ccccn5)c(Cl)c4)c23)C1` (centres unmarked) [Example 175, Methanesulfonic acid 2-{4-[3-chloro-4-(pyridin-2-ylmethoxy)-phenylamino]-5,6,7,8-tetrahydro-benzo[4,5]thieno[2,3-d]pyrimidin-7-yl}-ethyl ester], the IC50 in assay [1] and in assay [2] was < 5 µM each time.

As for `COCCNCCC1CCc2c(sc3ncnc(Nc4ccc(OCc5ccccn5)c(Cl)c4)c23)C1` (centres unmarked) [Example 176, N-[3-chloro-4-(pyridin-2-ylmethoxy)phenyl]-7-{2-[(2-methoxyethyl)amino]ethyl}-5,6,7,8-tetrahydro[1]benzothieno[2,3-d]pyrimidin-4-amine], the IC50 in assay [1] and in assay [2] was < 5 µM in each case.

Take `Clc1cc(Nc2ncnc3sc4c(c23)CCC(CCN2CCOCC2)C4)ccc1OCc1ccccn1` (centres unmarked) [Example 177, [3-Chloro-4-(pyridin-2-ylmethoxy)-phenyl]-[7-(2-morpholin-4-yl-ethyl)-5,6,7,8-tetrahydro-benzo[4,5]thieno[2,3-d]pyrimidin-4-yl]-amine]: the IC50 in assay [1] and in assay [2] was < 5 µM each time.

In the case of `CS(=O)(=O)CCNCCC1CCc2c(sc3ncnc(Nc4ccc(OCc5ccccn5)c(Cl)c4)c23)C1` (centres unmarked) [Example 178, N-[3-chloro-4-(pyridin-2-ylmethoxy)phenyl]-7-(2-{[2-(methylsulfonyl)ethyl]amino}ethyl)-5,6,7,8-tetrahydro[1]benzothieno[2,3-d]pyrimidin-4-amine], the IC50 in assay [1] and in assay [2] was < 5 µM in each case.

As to `OCCN(CCO)CCC1CCc2c(sc3ncnc(Nc4ccc(OCc5ccccn5)c(Cl)c4)c23)C1` (centres unmarked) [Example 179, 2,2′-{[2-(4-{[3-chloro-4-(pyridin-2-ylmethoxy)phenyl]amino}-5,6,7,8-tetrahydro[1]benzothieno[2,3-d]pyrimidin-7-yl)ethyl]imino}diethanol], the IC50 in assay [1] and in assay [2] was < 5 µM throughout.

As to `OCCNCCC1CCc2c(sc3ncnc(Nc4ccc(OCc5ccccn5)c(Cl)c4)c23)C1` (centres unmarked) [Example 180, 2-{[2-(4-{[3-chloro-4-(pyridin-2-ylmethoxy)phenyl]amino}-5,6,7,8-tetrahydro[1]benzothieno[2,3-d]pyrimidin-7-yl)ethyl]amino}ethanol], the values for the IC50 in assay [1] and in assay [2] were < 50 µM and < 5 µM, respectively.

As for `CN(C)[C@@H]1CCN(CCC2CCc3c(sc4ncnc(Nc5ccc(OCc6ccccn6)c(Cl)c5)c34)C2)C1` (stereo partly drawn) [Example 181, N-[3-chloro-4-(pyridin-2-ylmethoxy)phenyl]-7-{2-[(3R)-3-(dimethylamino)pyrrolidin-1-yl]ethyl}-5,6,7,8-tetrahydro[1]benzothieno[2,3-d]pyrimidin-4-amine], the IC50 in assay [1] is < 50 µM; in assay [2], < 5 µM.

Turning to `Clc1cc(Nc2ncnc3sc4c(c23)CCC(CCn2ccnc2)C4)ccc1OCc1ccccn1` (centres unmarked) [Example 182, N-[3-chloro-4-(pyridin-2-ylmethoxy)phenyl]-7-[2-(1H-imidazol-1-yl)ethyl]-5,6,7,8-tetrahydro[1]benzothieno[2,3-d]pyrimidin-4-amine], the results for the IC50 in assay [1] and in assay [2] were < 50 µM and < 5 µM, respectively.

With `CN1CCN(CCC2CCc3c(sc4ncnc(Nc5ccc(OCc6ccccn6)c(Cl)c5)c34)C2)CC1` (centres unmarked) [Example 183, N-[3-chloro-4-(pyridin-2-ylmethoxy)phenyl]-7-[2-(4-methylpiperazin-1-yl)ethyl]-5,6,7,8-tetrahydro[1]benzothieno[2,3-d]pyrimidin-4-amine], the IC50 in assay [1] and in assay [2] was < 5 µM in each case.

As to `CN(C)CCNCCC1CCc2c(sc3ncnc(Nc4ccc(OCc5ccccn5)c(Cl)c4)c23)C1` (centres unmarked) [Example 184, N′-[2-(4-{[3-chloro-4-(pyridin-2-ylmethoxy)phenyl]amino}-5,6,7,8-tetrahydro[1]benzothieno[2,3-d]pyrimidin-7-yl)ethyl]-N,N-dimethylethane-1,2-diamine], the IC50 in assay [1] and in assay [2] was < 5 µM each time.

As to `CN(C)CCC1CCc2c(sc3ncnc(Nc4ccc(OCc5ccccn5)c(Cl)c4)c23)C1` (centres unmarked) [Example 185, N-[3-chloro-4-(pyridin-2-ylmethoxy)phenyl]-7-[2-(dimethylamino)ethyl]-5,6,7,8-tetrahydro[1]benzothieno[2,3-d]pyrimidin-4-amine], the IC50 in assay [1] and in assay [2] was < 5 µM each time.
